In patent publication US20140154337A1, “ANTIMICROBIAL AGENTS AND METHODS FOR USE THEREOF IN THE ABATEMENT OF FOOD BORNE PATHOGENIC ORGANISMS” (priority 2011, published 2014):

System: Escherichia coli ATCC strain number 8739
Assay: Enteral antimicrobial laboratory evaluation: inoculated tryptic soy agar plates sprayed with test mixture, enumerated after three days
Assay type: cell-based
Details: TSA plates sprayed, phosphoric acid added to pH approximately 3.2 simulating mammalian stomach
Protocol: In particular, testing was conducted as follows:
Six (6) identical conventional tryptic soy agar (“TSA”) plates were inoculated with Escherichia coli of the ATCC strain number 8739, which, as previously discussed, is a feces derived strain typical of that expected in the applications of the present invention.
The inoculated plates were then separated into three (3) groups of two (2) plates each, which groups were treated as follows: • a. […] Group III was sprayed with purified water only (in order to establish a negative control for the evaluation).

O=P(O)(O)O [phosphoric acid solution, phosphoric acid]
growth of Escherichia coli: only a minor reduction in the growth
